# Test system: genotype 1/2 chimeric cell culture derived HCV (HCVcc)
# Assay: Genotype 1/2 chimeric HCVcc assay (nano-luciferase, HCV replication)
# Assay type: cell-based
# Conditions: Anti-HCVcc genotype 1/2 activity; Huh-7.5 cells, 72 h post infection, nano-luciferase
# How it was run: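 EC50 (replication, nano-luciferase) and CC50 (viability, cellular ATP) were determined by non-linear regression 72 h after infection with a reporter HCVcc chimera carrying genotype 1a structural and 2a JFH-1 non-structural proteins. Compound was applied to Huh-7.5 cells 2 h before inoculation.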
row,SMILES,EC50 [nM]
1,CCOC(=O)c1c(NC(=O)NCc2c(C(F)(F)F)sc3c2CCN(C(=O)[C@H](C)N)C3)sc2c1CCCC2 [Compound 328],< 100

# Same assay, conditions: Hepatitis C virus
row,SMILES,EC50 [nM]
1,O=S(=O)(NCCCN1CCC(N2CCCCC2)CC1)c1ccc(Oc2ccccc2)cc1 [Compound 1060],100 to 1000
2,CC(C)(C)OC(=O)c1ccc(-c2ccc(C(=O)NCCCN3CCC(N4CCCCC4)CC3)cc2)cc1 [Compound 1139],100 to 1000
3,O=C(CCCN1CCC(N2CCCCC2)CC1)Nc1ccc(-c2ccc(C(F)(F)F)cc2)cc1F [Compound 1114],100 to 1000
4,O=C(NCCCN1CCC(Cc2ccccc2)CC1)c1ccc(Oc2ccccc2)cc1 [Compound 1042],1000 to 10000
5,O=C(NCCCN1CCC(N2CCCCC2)CC1)c1ccc(Oc2ccc(Cl)cc2)cc1 [Compound 1109],1000 to 10000
6,O=C(NCCCN1CCC(c2ccccc2)CC1)c1ccc(Oc2ccccc2)cc1 [Compound 1041],1000 to 10000
7,O=C(NCCCN1CCC(N2CCCCC2)CC1)c1ccc(-c2ccc(CO)cc2)cc1 [Compound 1148],> 10000
8,CN1CCN(C(=O)c2ccc(-c3ccc(C(=O)NCCCN4CCC(N5CCCCC5)CC4)cc3)cc2)CC1 [Compound 1151],> 10000
9,O=C(NCCCN1CCC(C2CCNCC2)CC1)c1ccc(Oc2ccccc2)cc1 [Compound 1072],1000 to 10000
10,Cc1cc(NCCCN2CCC(N3CCCCC3)CC2)n2nc(-c3ccccc3)cc2n1 [Compound 1103],1000 to 10000
11,O=C(NCCCN1CCC(N2CCCCC2)CC1)c1cc2ccccc2[nH]1 [Compound 1010],1000 to 10000
12,O=C(NCCCN1CCC(N2CCCCC2)CC1)c1ccc2oc3ccccc3c2c1 [Compound 1074],1000 to 10000
13,COc1ccccc1Oc1ccc(C(=O)NCCCN2CCC(N3CCCCC3)CC2)cc1 [Compound 1063],> 10000
14,O=C(NCCCN1CCC(N2CCCCC2)CC1)c1cccc(-c2ccccc2)c1 [Compound 1025],1000 to 10000
15,O=C(NCCCN1CCC(N2CCCCC2)CC1)c1ccc(N2CCOCC2)cc1 [Compound 1029],> 10000
16,O=C(NCCCCCCN1CCC(N2CCCCC2)CC1)c1ccc(Oc2ccccc2)cc1 [Compound 1088],100 to 1000
17,O=C(NCCCN1CCC(N2CCCCC2)CC1)c1cc2c(s1)CCCC2 [Compound 1002],> 10000
18,O=C(NCCCN1CCC(N2CCCCC2)CC1)c1ccc2c(c1)NC(=O)c1ccccc1S2 [Compound 1066],1000 to 10000

# Same assay, conditions: Hepatitis C virus, Huh7.5, 72 h
row,SMILES,EC50 [nM]
1,CCNC(=O)c1c(NC(=O)NCc2c(-n3cccc3)sc3c2CCN(CC)C3)sc2c1CCCC2 [Compound 36],< 100
2,CCN1CCc2c(sc(Br)c2CNC(=O)Nc2sc(C)c(C)c2C(=O)OC(C)C)C1 [Compound 264],< 100
3,Cc1sc(NC(=O)NCc2c(-c3cccc(F)c3)sc3c2CCN(CCN(C)C)C3)c(C(=O)OC(C)(C)C)c1C [Compound 366],< 100
4,CCOC(=O)c1c(NC(=O)NCc2c(-n3cccc3)sc3c2CCN(CC)C3)sc2c1CC(C)CC2 (centres unmarked) [Compound 192],< 100
5,CCOC(=O)c1cc(C)ccc1NC(=O)NCc1c(-n2cccc2)sc2c1CCNC2 [Compound 104],1000 to 10000
6,CCOC(=O)c1c(NC(=O)NCc2c(-n3cccc3)sc3c2CCN(S(C)(=O)=O)C3)sc2c1CCCC2 [Compound 21],< 100
7,CC(C)(C)OC(=O)c1c(NC(=O)NCc2c(-c3cccc(C(F)(F)F)c3)sc3c2CCNC3)sc2c1CCCC2 [Compound 204],100 to 1000
8,CCc1sc2c(c1CNC(=O)Nc1sc3c(c1C(=O)OC(C)(C)C)CCOC3)CCNC2 [Compound 333],< 100
9,Cc1sc(NC(=O)NCc2c(C(F)(F)F)sc3c2CCN(CCN(C)C)C3)c(C(=O)OC(C)(C)C)c1C [Compound 367],< 100
10,CCOC(=O)c1c(N/C(=N/C#N)NCc2c(-n3cccc3)sc3c2CCN(CC)C3)sc2c1CCCC2 [Compound 77],> 10000
11,C=CCCOC(=O)c1c(NC(=O)NCc2c(C(F)(F)F)sc3c2CCNC3)sc2c1CCCC2 [Compound 275],< 100
12,CCN1CCc2c(sc(-n3cccc3)c2CNC(=O)Nc2sc3c(c2C(=O)OC2CCCC2)CCCC3)C1 [Compound 222],< 100
13,CCN1CCc2c(sc(-n3cccc3)c2CNC(=O)Nc2sc3c(c2C(=O)OC(C)(C)C)CCCCC3)C1 [Compound 115],< 100
14,Cc1sc(NC(=O)NCc2c(Br)sc3c2CCN(C)C3)c(C(=O)OC(C)C)c1C [Compound 297],< 100
15,CC(C)(C)OC(=O)c1c(NC(=O)NCc2c(-n3cccc3)sc3c2CCN(C(C)(C)C)C3)sc2c1CCCC2 [Compound 99],< 100
16,O=C(NCc1c(-n2cccc2)sc2c1CCNC2)Nc1sc2c(c1C(=O)OC1CCCC1)CCCC2 [Compound 220],< 100
17,CCOC(=O)c1c(NC(=O)NCc2csc3c2CCNC3)sc2c1CCCC2 [Compound 38],< 100
18,CCc1cc(C(=O)OC(C)(C)C)c(NC(=O)NCc2c(C(F)(F)F)sc3c2CCNC3)s1 [Compound 354],< 100
19,CC(C)(C)OC(=O)c1c(NC(=O)NCc2c(-n3cccc3)sc3c2CCN(C2COC2)C3)sc2c1CCCC2 [Compound 261],< 100
20,Cc1nnc(-c2c(NC(=O)NCc3c(-n4cccc4)sc4c3CCN(C)C4)sc3c2CCCC3)o1 [Compound 65],< 100
21,CCOC(=O)c1c(NC(=O)NCc2c(C(F)(F)F)sc3c2CCNC3)sc(C)c1C [Compound 132],< 100
22,CCOC(=O)c1c(NC(=O)NCc2c(C(F)(F)F)sc3c2CCN(C(=O)CN)C3)sc2c1CCCC2 [Compound 305],< 100
23,CCOC(=O)c1c(NC(=O)NCc2c(Br)sc3c2CCN(CC)C3)sc2c1CCCC2 [Compound 110],< 100
24,CC(C)(C)OC(=O)c1c(NC(=O)NCc2c(C(F)(F)F)sc3c2CCNC3)sc2c1CCOC2 [Compound 238],< 100
25,CCN1CCc2c(sc(Br)c2CNC(=O)Nc2sc3c(c2C(=O)OC)CCCC3)C1 [Compound 177],< 100
26,CC(C)(C)OC(=O)c1c(NC(=O)NCc2c(-c3cc(F)cc(C(F)(F)F)c3)sc3c2CCNC3)sc2c1CCCC2 [Compound 246],1000 to 10000
27,CC(C)(C)OC(=O)c1c(NC(=O)NCc2c(-c3ccc(Cl)nc3)sc3c2CCNC3)sc2c1CCCC2 [Compound 307],< 100
28,CC(C)(C)OC(=O)c1c(NC(=O)NCc2csc3c2CCNC3)sc2c1CCCC2 [Compound 124],< 100

row,SMILES,EC50 [nM]
1,O=C(NCc1c(C(F)(F)F)sc2c1CCNC2)Nc1sc2c(c1C(=O)OC1CCCC1)CCCC2 [Compound 235],< 100
2,CCOC(=O)c1c(NC(=O)c2cc3c(s2)CCCC3)sc2c1CCN(CC)C2 [Compound 17],1000 to 10000
3,CCc1sc(NC(=O)NCc2c(C(F)(F)F)sc3c2CCN(CCN(C)C)C3)c(C(=O)OC(C)(C)C)c1C [Compound 356],< 100
4,CC(C)(C)OC(=O)c1c(NC(=O)NCc2c(-c3ccc4cc[nH]c4c3)sc3c2CCNC3)sc2c1CCCC2 [Compound 201],1000 to 10000
5,COc1sc(NC(=O)NCc2c(C(F)(F)F)sc3c2CCNC3)c(C(=O)OC(C)(C)C)c1C [Compound 371],< 100
6,CC(C)(C)OC(=O)c1c(NC(=O)NCc2c(-n3cccc3)sc3c2CCNC3)sc2c1CCC2 [Compound 277],< 100
7,Cc1nnc(-c2c(NC(=O)NCc3c(Br)sc4c3CCNC4)sc(C)c2C)o1 [Compound 162],< 100
8,Cc1sc(NC(=O)NCc2c(C(F)(F)F)sc3c2CCNC3)c(C(=O)OC(C)C)c1C [Compound 217],< 100
9,CCN1CCc2c(sc(-n3cccc3)c2CNC(=O)Nc2sc3c(c2C(=O)OC(C)(C)C)CCOC3)C1 [Compound 237],< 100
10,Cc1noc(-c2c(NC(=O)NCc3c(-n4cccc4)sc4c3CCNC4)sc3c2CCCC3)n1 [Compound 304],100 to 1000
11,CCN1CCc2c(sc(-n3cccc3)c2CNC(=O)Nc2sc3c(c2C(=O)NCCCCNC(=O)CCCCCNC(=O)OC(C)(C)C)CCCC3)C1 [Compound 92],1000 to 10000
12,CC(C)(C)OC(=O)c1c(NC(=O)NCc2c(-n3cccc3)sc3c2CCN(C2CC2)C3)sc2c1CCCC2 [Compound 334],< 100
13,CC(C)(C)OC(=O)c1c(NC(=O)NCc2c(Br)sc3c2CCNC3)sc2c1CCOC2 [Compound 239],< 100
14,COC(=O)c1c(NC(=O)NCc2c(Br)sc3c2CCN(C)C3)sc2c1CCCC2 [Compound 175],< 100
15,CCOC(=O)c1c(NC(=O)NCc2c(C(F)(F)F)sc3c2CCN(C(=N)N)C3)sc2c1CCCC2 [Compound 341],< 100
16,CCOC(=O)c1cc(-c2ccccc2)sc1NC(=O)NCc1c(-n2cccc2)sc2c1CCN(CC)C2 [Compound 40],100 to 1000
17,CC(C)N1CCc2c(sc(C(F)(F)F)c2CNC(=O)Nc2sc3c(c2C(=O)OC(C)(C)C)CCCC3)C1 [Compound 186],< 100
18,CN1CCc2c(sc(Br)c2CNC(=O)Nc2sc3c(c2C(=O)OC(C)(C)C)CCC3)C1 [Compound 299],< 100
19,CC(C)(C)OC(=O)c1c(NC(=O)NCc2c(-c3cccc(O)c3)sc3c2CCNC3)sc2c1CCCC2 [Compound 252],100 to 1000
20,CCOC(=O)c1c(NC(=O)NCc2c(Br)sc3c2CCNC3)sc2c1CCOC2 [Compound 163],< 100
21,O=C(NCc1c(C(F)(F)F)sc2c1CCNC2)Nc1sc2c(c1C(=O)OC1CCOC1)CCOC2 (centres unmarked) [Compound 336],< 100
22,CC(C)(C)OC(=O)c1c(NC(=O)NCc2c(C(F)(F)F)sc3c2CCNC3)sc2c1CCCC2 [Compound 117],< 100
23,CC(C)(C)OC(=O)c1c(NC(=O)NCc2c(-c3ccc(Cl)c(Cl)c3)sc3c2CCNC3)sc2c1CCCC2 [Compound 287],100 to 1000
24,CCN1CCc2c(sc(C(F)(F)F)c2CNC(=O)Nc2sc3c(c2C(=O)OC)CCCC3)C1 [Compound 178],< 100
25,CCN1CCc2c(sc(-n3cccc3)c2C(C)(C)NC(=O)Nc2sc3c(c2C(=O)OC(C)(C)C)CCCC3)C1 [Compound 202],1000 to 10000
26,CC(C)(C)OC(=O)c1c(NC(=O)NCc2c(-c3ccc(Cl)cc3)sc3c2CCNC3)sc2c1CCCC2 [Compound 179],< 100
27,CC(C)(C)OC(=O)c1c(NC(=O)NCc2c(C(F)(F)F)sc3c2CCNC3)sc2c1CCOC2O (centres unmarked) [Compound 320],< 100
